Columns and labels:
[1] = target: T1, CKIP-1 (casein kinase 2 interacting protein-1) (Homo sapiens, UniProt Q53GL0); assay: SPR (Biacore T200, GST-CKIP-1-C1 captured on CM5 via anti-GST); supported by CETSA in HEK293T cells with Flag-CKIP-1; type: binding
T1 construct: gene PLEKHO1; GST-CKIP-1-C1 (C-terminal leucine zipper region, 345–409)
T1 sequence (Q53GL0 345-409): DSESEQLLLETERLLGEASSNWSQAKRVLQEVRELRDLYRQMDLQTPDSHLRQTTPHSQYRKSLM

[2] = target: T1, CKIP-1 (casein kinase 2 interacting protein-1); assay: SPR (Biacore T200, GST-CKIP-1-C1 captured on CM5 via anti-GST); type: binding

| Kd [1] [nM] | Kd [2] [nM] | Compound |
| --- | --- | --- |
| 27.1 |  | CNC(=O)c1c(F)ccc(NS(=O)(=O)c2ccc(OC)nc2)c1-c1cc(C(F)(F)F)cc(C(F)(F)F)c1 [C77] |
|  | 2170 | CNC(=O)C1(NC(=O)/C=C/c2cc(I)cc(OC)c2O)CC1 [C170] |
